The text below walks through data of ChEMBL document CHEMBL1201862, “PubChem BioAssay data set” (2004).

Holding throughout (assay): NCI-60 cell line screen, 48 h
Experiment [1] has as its system 786-0.
Experiment [2] relates to CCRF-CEM.
In experiment [3] the test system is HCC 2998.
For experiment [4], the system named is HOP-62.
Experiment [5] concerns HOP-92.
Experiment [6] deals with K562.
Experiment [7] has as its system M14.
Experiment [8] has as its system OVCAR-3.
In experiment [9] the test system is OVCAR-5.
The subject of experiment [10] is OVCAR-8.
In experiment [11] the test system is RXF 393.
Experiment [12] deals with SF-268.
Experiment [13] has as its system SF-539.
The subject of experiment [14] is SK-MEL-28.
In experiment [15] the test system is SNB-19.
Experiment [16] deals with SNB-75.
For experiment [17], the system named is SR.
The subject of experiment [18] is TK-10.
The subject of experiment [19] is UACC-62.
For experiment [20], the system named is SK-OV-3.

Counter-ions that a name gives are not always drawn.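 How tested: cells in 96-well plates exposed to compound for 48 hours at five concentrations. GI50 marks 50% less growth.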 Activity calls are given as the source filed them. Cut-off read from the data, not from the text of the source: active = GI50 up to about 1.1 µM and inactive = higher.

For `O=c1[nH]nc(Nc2ccc(Cl)cc2)c2nnn(C3CCCCC3)c12`, the GI50 in [1] was 15.1 µM (inactive); in [2], 26.7 µM (inactive); in experiment [3] it was > 100 µM (inactive); in experiment [4] it was 30.8 µM (inactive); in experiment [5], 22.4 µM (inactive); in experiment [6], 26.5 µM (inactive). In addition, the GI50 in experiment [7] was 55.1 µM (inactive); in experiment [8] it was 37.2 µM (inactive); in experiment [9], > 100 µM (inactive); in experiment [10], 14.1 µM (inactive); in [11], 30.4 µM (inactive); in experiment [12] it was 36.6 µM (inactive). In addition, the GI50 is > 100 µM (inactive) in experiment [13]; > 100 µM (inactive) in experiment [14]; > 100 µM (inactive) in experiment [15]; 26.3 µM (inactive) in experiment [16]; 7.19 µM (inactive) in [17]; 53 µM (inactive) in [18]. Besides, the GI50 in experiment [19] is > 100 µM (inactive).
As for `O=C(CC1C(=O)Nc2ccccc2S1(=O)=O)Nc1ccc(Cl)cc1` (configuration not stated), the GI50 in [1] is 14.5 µM (inactive); in experiment [2] it was 20.3 µM (inactive); in experiment [3], 18.4 µM (inactive); in experiment [5], 16.9 µM (inactive); in [6], 18.2 µM (inactive); in experiment [7] it was 31 µM (inactive). Also, the GI50 is 15.2 µM (inactive) in experiment [8]; 78.9 µM (inactive) in [9]; 26.4 µM (inactive) in [10]; 15.9 µM (inactive) in [11]; 14.4 µM (inactive) in experiment [12]; 13.8 µM (inactive) in experiment [13]. The GI50 in [14] was 20 µM (inactive); in [15], 18.8 µM (inactive); in experiment [16], 16.9 µM (inactive); in experiment [17], 4.7 µM (inactive); in experiment [18], 20 µM (inactive); in [19], 43 µM (inactive).
On to `NCCCCNCCCN` [SPERMIDINE TRIHYDROCHLORIDE], for which the GI50 in experiment [1] is > 100 µM (inactive); in experiment [3] it was > 100 µM (inactive); in [4], > 100 µM (inactive); in experiment [5], > 100 µM (inactive); in experiment [6], 67.8 µM (inactive); in [7], > 100 µM (inactive). The GI50 in experiment [8], in experiment [9], in experiment [10], in experiment [11], in [12] and in experiment [13] was > 100 µM (inactive) throughout. Also, the GI50 in [14], in experiment [20], in experiment [15], in experiment [16], in experiment [17] and in experiment [18] was > 100 µM (inactive) in each case. In addition, the GI50 in experiment [19] was > 100 µM (inactive).
Regarding `N#C[BH2-][n+]1ccc(C(=O)NNCc2ccc(F)cc2)cc1`, the GI50 in experiment [1], in [2], in [3], in experiment [5], in [6] and in [7] was > 100 µM (inactive) each time. Further, the GI50 in experiment [8], in [9], in experiment [10], in experiment [11], in [12] and in [13] was > 100 µM (inactive) throughout. Moreover, the GI50 in [14], in experiment [15], in experiment [16], in experiment [17], in [18] and in experiment [19] was > 100 µM (inactive) throughout.
As for `COc1cccc2cc(C(=O)O)c(=O)oc12`, the GI50 in [1], in [2], in [3], in [4], in experiment [5] and in [6] was > 100 µM (inactive) throughout. In addition, the GI50 in experiment [7], in experiment [8], in experiment [9], in experiment [10], in [11] and in [12] was > 100 µM (inactive) each time. The GI50 in experiment [13], in [14], in experiment [15], in experiment [16], in experiment [17] and in experiment [18] was > 100 µM (inactive) throughout. The GI50 in experiment [19] was 63.7 µM (inactive).
Regarding `O=C1CN(c2ccccc2)C(=O)CN1CCN1CC(=O)N(c2ccccc2)CC1=O`, the GI50 in experiment [1], in [3], in experiment [4], in experiment [5], in experiment [7] and in [8] was > 100 µM (inactive) in each case. Besides, the GI50 in experiment [9], in [10], in [11], in [12], in experiment [13] and in experiment [14] was > 100 µM (inactive) in each case. Further, the GI50 in experiment [20], in [15], in experiment [16], in experiment [17], in [18] and in experiment [19] was > 100 µM (inactive) each time.
Regarding `COc1cccc2cc(C(C)=O)c(=O)oc12`, the GI50 in experiment [1], in [2], in [3], in experiment [4], in [5] and in experiment [6] was > 100 µM (inactive) throughout. Moreover, the GI50 in experiment [7], in experiment [8], in experiment [9], in [10], in experiment [11] and in [12] was > 100 µM (inactive) each time. For the same compound, the GI50 in experiment [13], in experiment [14], in experiment [16], in [17], in experiment [18] and in experiment [19] was > 100 µM (inactive) throughout.
Turning to `OCCN1CN(c2nc(N3CN(CCO)C3)nc(N3CN(CCO)C3)n2)C1`, the GI50 in experiment [1] is 23.8 µM (inactive); in [2], 20.5 µM (inactive); in [3], 19.5 µM (inactive); in experiment [4], 19.3 µM (inactive); in [5] it was 19.9 µM (inactive); in experiment [6] it was 25.4 µM (inactive). For the same compound, the GI50 in experiment [7] is 17.5 µM (inactive); in experiment [9] it was 23.1 µM (inactive); in [10], 45.6 µM (inactive); in experiment [11] it was 22.7 µM (inactive); in experiment [12], 22.6 µM (inactive); in experiment [13], 18.2 µM (inactive). The GI50 was 17.7 µM (inactive) in experiment [14]; 23 µM (inactive) in experiment [15]; 23.1 µM (inactive) in [16]; 11.2 µM (inactive) in experiment [17]; 30.6 µM (inactive) in experiment [18]; 14.5 µM (inactive) in [19].
As for `C=CCC1C(O[Si](C)(C)C(C)(C)C)C(CO[Si](C)(C)C(C)(C)C)OC1n1ccc(=O)[nH]c1=O` (configuration not stated), the GI50 was 1.15 µM (inactive) in [1]; 0.548 µM (active) in experiment [2]; 1.63 µM (inactive) in [3]; 1.98 µM (inactive) in [4]; 1.05 µM (active) in experiment [5]; 1.22 µM (inactive) in experiment [6]. Also, the GI50 is 1.42 µM (inactive) in experiment [7]; 1.6 µM (inactive) in [8]; 1.28 µM (inactive) in experiment [9]; 1.7 µM (inactive) in experiment [10]; 1.8 µM (inactive) in experiment [11]; 1.6 µM (inactive) in experiment [13]. In addition, the GI50 is 1.58 µM (inactive) in experiment [14]; 1.61 µM (inactive) in experiment [15]; 1.24 µM (inactive) in experiment [16]; 2.07 µM (inactive) in experiment [17]; 1.73 µM (inactive) in experiment [19].
On to `CCOc1ccc(-n2c(=O)n3c(Nc4ccc(Cl)cc4)nc4c(c(=O)n(C)c(=O)n4C)n3c2=O)cc1`, for which the GI50 in experiment [1] is 36.6 µM (inactive); in [2] it was 20.8 µM (inactive); in [3], 19.5 µM (inactive); in [4], 71.1 µM (inactive); in experiment [5], 22.5 µM (inactive); in experiment [6], 29.6 µM (inactive). Besides, the GI50 in experiment [7] is > 10 µM (inactive); in experiment [8], 23 µM (inactive); in experiment [9] it was 37.6 µM (inactive); in experiment [10], 36.8 µM (inactive); in experiment [11] it was 26.6 µM (inactive); in experiment [12] it was 34.8 µM (inactive). Moreover, the GI50 in [13] was 41 µM (inactive); in [14] it was 28.2 µM (inactive); in [15], > 100 µM (inactive); in [16], 13.7 µM (inactive); in experiment [17], 21 µM (inactive); in [18], 18.8 µM (inactive). Moreover, the GI50 in experiment [19] is 18.1 µM (inactive).
With `CS(=O)(=O)Nc1ccc(NCc2c[nH]c3ccc4ncccc4c23)cc1`, the GI50 in [1] was 29.9 µM (inactive); in experiment [2], 18.8 µM (inactive); in experiment [4] it was 36.5 µM (inactive); in experiment [5], 52.6 µM (inactive); in [6], 18.7 µM (inactive); in experiment [7], 20.9 µM (inactive). For the same compound, the GI50 in [8] was 31.1 µM (inactive); in experiment [9] it was 40.3 µM (inactive); in experiment [10], 34 µM (inactive); in experiment [11] it was 23.9 µM (inactive); in experiment [12], 23.7 µM (inactive); in experiment [13] it was 24.8 µM (inactive). In addition, the GI50 was 26.1 µM (inactive) in [14]; 50.8 µM (inactive) in experiment [20]; 49.1 µM (inactive) in experiment [15]; 30.3 µM (inactive) in experiment [16]; 13.3 µM (inactive) in experiment [17]; 25.6 µM (inactive) in experiment [18]. Also, the GI50 in experiment [19] was 15 µM (inactive).
